Where a name gives a salt, the structure may show the parent alone. Read-outs that look alike come from different tables or passages of the source.
How the values were obtained:
Type in all cases: physicochemical
[1] = Measurement of critical degree of supersaturation of spherulite; conditions: entry 19; solvent 1 EtOH, solvent 2 H2O, solvent 2/solvent 1 ratio 1; crystallization 35 °C
Text: “Supersaturated solution” in the present description means a solution in a state of containing a solute exceeding the solubility. As the degree of supersaturation, “degree of supersaturation” can be used. Regarding the degree of supersaturation, when the concentration (mass concentration (g/g)) of a compound dissolved in a supersaturated solution is defined as C and the solubility of the compound is defined as Cs, the degree of supersaturation S can be represented by the following formula: […]
“Critical degree of supersaturation” in the present description means the lowest degree of supersaturation required to obtain a specifically-shaped crystal. […] The value of a critical degree of supersaturation varies depending on the shape of a crystal. For example, all of values of a critical degree of supersaturation required to obtain a plate crystal, a critical degree of supersaturation required to obtain a needle crystal, and a critical degree of supersaturation required to obtain a spherulite are different. The critical degree of supersaturation required to obtain a spherulite is higher than the critical degree of supersaturation required to obtain a plate crystal or a needle crystal.
The actual measured value of the critical degree of supersaturation (S*) can be measured as follows:
(1) 100 particles are observed by SEM. (2) 5 to 10 particles whose shape is close to a desired specific shape are selected, and the shape is evaluated. In particular, when the desired specific shape is a sphere, the sphericity is evaluated. (3) Based on the evaluation index of the shape, whether the selected particles have the desired specific shape or not is determined. In particular, when the desired specific shape is a sphere, the case where the sphericity is 0.60 or more is determined as a spherulite. (4) The above-mentioned operation is performed for each sample having a different degree of supersaturation during crystallization, and the minimum value of a degree of supersaturation having the specifically-shaped particles is determined as the critical degree of supersaturation. The difference between the maximum value of a degree of supersaturation not having the specifically-shaped particles and the critical degree of supersaturation should be 20% or less.
The critical degree of supersaturation of a spherulite of ketotifen fumarate was determined as follows. To 2.0 g of ketotifen fumarate, 10 mL (5 v/w) of methanol was added, followed by reflux to completely dissolve. This solution was added dropwise to 50 mL of isopropanol at 20° C. to prepare a supersaturated solution of ketotifen fumarate. The degree of supersaturation of the supersaturated solution at the end of dropwise addition was 9.0. The supersaturated solution was crystallized. The crystal was collected by filtration, followed by drying under reduced pressure at 40° C., thus obtaining a crystal of ketotifen fumarate.
Similarly, when a substrate and a solvent different from those mentioned above are used, a plurality of samples having a different degree of supersaturation are prepared and crystallized, and then the critical degree of supersaturation of the spherulite was measured.

[2] = Particle density, true density and particle packing rate; conditions: for Particle packing rate: particle density / true density x 100; for Particle packing rate / Particle density: trihydrate
Procedure: “Particle density” in the present description is mass per unit volume when the volume of the substance itself as well as the volume of the open void and the closed void are included as the volume of polycrystalline particles. For example, when the polycrystalline particles are spherical particles, the particle density is calculated by the following formula using the mean mass of the polycrystalline particles and the mean volume of the polycrystalline particles:
Here, the mean mass of polycrystalline particles is calculated by measuring the number of polycrystalline particles contained in 1.0 mg or more, preferably 5.0 mg or more, and more preferably 10.0 mg or more of a sample by a scanner, etc. The mean volume of crystal particles is obtained by averaging the volume calculated by photographing 500 or more, preferably 1,000 or more, and more preferably 5,000 or more crystal particles by a light microscope, etc., using an equivalent circle diameter obtained from the projected area of polycrystalline particles, and assuming that the polycrystalline particles are true spheres. At this time, it is desirable that the distribution of the equivalent circle diameter is unimodal and the sharpness value is less than 1.5.
“Particle packing rate” of a polycrystal in the present description is a value calculated by the following formula:
Particle packing rate (%)=(particle density)/(true density of compound)×100 [Equation 8]
Here, “true density of compound” is a density of a substance itself not including a void. If no void exists at all inside or on the surface of a particle, the particle packing rate is 100%. The true density of a compound can be obtained by dry density measurement by the constant volume expansion method. Examples of the measuring device include a dry automatic densimeter AccuPyc II 1340-10CC manufactured by Shimadzu Corporation.
The particle size distribution was measured in a dry manner using a spray particle size distribution analyzer AEROTRAC LDSA-SPR3500A manufactured by Microtrac Inc. The particle size distribution in Examples 2 and 7 was measured in a dry manner using a laser diffraction particle size distribution measurement MASTERSIZER 3000 manufactured by Malvern Panalytical Ltd. SEM images were measured using a scanning electron microscope JSM-IT100 manufactured by JEOL Ltd. Light microscope images were measured using an upright microscope BX53M manufactured by Olympus Corporation and a microscope digital camera DP74 manufactured by Olympus Corporation. Images for measuring the number of particles were obtained by a scanner GT-X830 manufactured by SEIKO EPSON CORPORATION. The powder X-ray diffraction (XRD) was measured using a desktop X-ray diffraction device MiniFlex300 manufactured by Rigaku Corporation. The specific surface area was measured by the BET fluid process (gas used: pure nitrogen) using a fully automatic specific surface area measuring device Macsorb HM-1208 manufactured by Mountech Co., Ltd. The moisture content was measured using a trace moisture measuring device AQ-2200 manufactured by […] SANGYO Co., Ltd. The dissolution profile was measured using μDISS Profiler manufactured by Pion Inc. Centrifugal classification was performed using a high-efficiency precision forced air classifier Lab Calssiel N-01 manufactured by SEISHIN […] Co., Ltd. Image analysis was performed using image processing software ImageJ developed by the National Institute of Health (NIH). The particle strength was measured using a particle hardness measuring device NEW GRANO manufactured by OKADA SEIKO CO., LTD. The true density was measured using a dry automatic densimeter AccuPyc II 1340-10CC manufactured by Shimadzu Corporation. The purity of a compound was measured by a high performance liquid chromatograph (LC-20A) manufactured by Shimadzu Corporation. […]

[3] = Sphericity from SEM images (ImageJ); set-up: key: 1 = true sphere; closer to 1 = more spherical; mean of ≥5 particles
Text: In the present description, “spherulite” means a crystal aggregate (polycrystal) which has a radial or concentric thin layered structure and has a spherical outer shape. Whether the crystal obtained by the method of the present invention is a spherulite or not can be determined, for example, by observing the outer shape of the crystal using SEM. For example, it can be discriminated by cutting the crystal aggregate and observing the internal structure thereof using SEM. The sphericity of the spherulite obtained by the method of the present invention is usually 0.60 or more, preferably 0.70 or more, more preferably 0.80 or more, particularly preferably 0.90 or more, and most preferably 0.95 or more. The sphericity can be calculated by the following method.
When an image of particles taken by SEM is analyzed using image processing software ImageJ, a coordinate group representing the position of pixels forming the outline of a particle is obtained. The length of the coordinate group is defined as N, and one pixel coordinate of each outline is defined as p[i] (1≤i≤N). The angle between a straight line l(k) connecting two points p[k] and p[k+N/D] and a straight line m(k) connecting two points p[k+N/D] and p[k+2N/D] is defined as θ(k) (−180°<θ<180°) (1≤k≤N, 1≤D≤N). D corresponds to the number of partitions of the outline. When N/D is not a natural number, the value is defined as the quotient obtained by dividing N by D. By calculating this angle with k=1 to N, N pieces of θ value can be obtained.
When the particle is a true sphere, θ(k) is 360/D, and the closer the particle is to a true sphere, the closer θ(k) is to this value. The error between θ(k) and the true value 360/D is evaluated by the root-mean-square error (RMSE) of the following formula:
Using the RMSE value of when D is 10 (θ(k)=36°), the sphericity is defined by the following formula: […]
The sphericity is 1 in a true sphere, and the closer the particle is to a true sphere, the closer the sphericity is to 1. Meanwhile, the sphericity of an ellipse whose long axis is infinitely long is zero. The sphericity is measured for five or more particles to calculate the mean. This mean is defined as the sphericity of each sample (see FIGS. 42 and 43).

[4] = Particle size distribution (d50, sharpness index); set-up: key to sharpness index of the crystal thus obtained / sharpness index of the fine powders: calculated by formula from d10, d50, d90; 1.0 = most uniform particle size
Text: d10 in the present description is a value obtained from a particle size distribution analyzer, and represents a particle size of a particle corresponding to 10% of accumulation from the smaller particle side in the particle size distribution based on the volume.
d50 in the present description is a value obtained from a particle size distribution analyzer, and represents a particle size of a particle corresponding to 50% of accumulation from the smaller particle side in the particle size distribution based on the volume.
“Sharpness index” in the present description is an index representing the uniformity of a particle size of a particle in a powder, and a sharpness index of 1.0 represents a powder having the most uniform particle size. The closer the sharpness index is to 1.0, the more the particle size of the powder is uniform. Specifically, the sharpness index represents a value calculated using the following formula from the values of d10, d50, and d90 measured by a particle size distribution analyzer:
Images for measuring the number of particles were obtained by a scanner GT-X830 manufactured by SEIKO EPSON CORPORATION. The powder X-ray diffraction (XRD) was measured using a desktop X-ray diffraction device MiniFlex300 manufactured by Rigaku Corporation. […] The particle strength was measured using a particle hardness measuring device NEW GRANO manufactured by OKADA SEIKO CO., LTD. […] The purity of a compound was measured by a high performance liquid chromatograph (LC-20A) manufactured by Shimadzu Corporation.

[5] = SEM image analysis, mean of particles
[6] = dry particle size distribution, volume based

Row | sphericity of the spherulite [3, 5] | sharpness index of the crystal thus obtained ([4]; calculated from d10, d50, d90) | d50 of the crystal thus obtained [4, 6] | Structure (SMILES) | Particle packing rate [2] | Particle density [2] | other results
1 | – | – | – | COc1ccc2[n-]c([S@@+]([O-])Cc3ncc(C)c(OC)c3C)nc2c1.COc1ccc2[n-]c([S@@+]([O-])Cc3ncc(C)c(OC)c3C)nc2c1.O.O.O.[Mg+2] [Esomeprazole magnesium trihydrate] | – | – | Critical degree of supersaturation S Experimental value [1]: 1.6; true density [2]: 1.37 g/mL
2 | – | – | – | COc1ccc2[n-]c([S@@+]([O-])Cc3ncc(C)c(OC)c3C)nc2c1.COc1ccc2[n-]c([S@@+]([O-])Cc3ncc(C)c(OC)c3C)nc2c1.O.O.O.[Mg+2] [Sample 2, esomeprazole magnesium trihydrate] | 64% | 0.87 g/mL | –
3 | – | – | – | COc1ccc2[n-]c([S@@+]([O-])Cc3ncc(C)c(OC)c3C)nc2c1.COc1ccc2[n-]c([S@@+]([O-])Cc3ncc(C)c(OC)c3C)nc2c1.O.O.O.[Mg+2] [Sample 1, esomeprazole magnesium trihydrate] | 54% | 0.74 g/mL | –
4 | – | – | – | O.O.O.O.O.O.O.O.O=C([O-])[O-].O=C([O-])[O-].O=C([O-])[O-].[La+3].[La+3] [Example 17, lanthanum carbonate octahydrate] | – | – | sphericity of the spherulite [3]: 0.69±0.08; d50 of the crystal thus obtained [4]: 105 μm; sharpness index of the crystal thus obtained [4]: 1.4
5 | – | – | – | CNCC[C@H](Oc1cccc2ccccc12)c1cccs1 [Example 15, duloxetine hydrochloride] | – | – | sphericity of the spherulite [3]: 0.92±0.07; d50 of the crystal thus obtained [4]: 138 μm; sharpness index of the crystal thus obtained [4]: 4.7
6 | – | – | – | COc1ccc2[n-]c([S@@+]([O-])Cc3ncc(C)c(OC)c3C)nc2c1.COc1ccc2[n-]c([S@@+]([O-])Cc3ncc(C)c(OC)c3C)nc2c1.O.O.O.[Mg+2] [Example 2, esomeprazole magnesium trihydrate] | – | – | sphericity of the spherulite ([3]; SEM image analysis, mean of particles, trihydrate): 0.95±0.03; sharpness index of the fine powders ([4]; after centrifugal classification and sieving): 1.3; d50 of the fine powders ([4]; after centrifugal classification and sieving (on 390 M, 38 μm)): 54.6 μm; sharpness index of the crystal thus obtained ([4]; calculated from d10, d50, d90, trihydrate): 2.5; d50 of the crystal thus obtained ([4]; dry particle size distribution, volume based, trihydrate): 56.1 μm
7 | 0.98±0.01 | 4.87 | 50.7 μm | CN(C)CCC[C@@]1(c2ccc(F)cc2)OCc2cc(C#N)ccc21 [Example 19, escitalopram oxalate] | – | – | –
8 | 0.95±0.03 | 2.61 | 61.3 μm | CCCCCCOC(=O)N=C(N)c1ccc(NCc2nc3cc(C(=O)N(CCC(=O)OCC)c4ccccn4)ccc3n2C)cc1 [Example 24, dabigatran etexilate methanesulfonate] | – | – | –
9 | – | – | – | COc1ccc2[n-]c([S@@+]([O-])Cc3ncc(C)c(OC)c3C)nc2c1.COc1ccc2[n-]c([S@@+]([O-])Cc3ncc(C)c(OC)c3C)nc2c1.O.O.O.[Mg+2] [Sample 3, esomeprazole magnesium trihydrate] | 88% | 1.21 g/mL | –

Row | Structure (SMILES) | sphericity of the spherulite [3, 5] | sharpness index of the crystal thus obtained ([4]; calculated from d10, d50, d90) | d50 of the crystal thus obtained [4, 6] | Particle packing rate [2] | Particle density [2] | other results
10 | Cn1c(=O)c2[nH]cnc2n(C)c1=O.O.O.O.O.[Mg] [Example 26, theophylline magnesium salt tetrahydrate] | 0.95±0.02 | 3.06 | 43.0 μm | – | – | –
